Experimental data as given in patent US11185523B2, “Use of bipolar trans carotenoids with chemotherapy and radiotherapy for treatment of cancer” (DIFFUSION PHARMACEUTICALS LLC, priority 2016, dated 2021).

Columns and labels:
VEGF A gene = assay: Expression of HIF1 targeted genes in hypoxic conditions; conditions: gene upregulated with hypoxia
Description: The subject disclosure relates to the treatment of various tumors and/or cancers (i.e., gliobastoma, pancreatic cancer, etc.). It is well established that tumors are hypoxic with many tumor types being highly hypoxic. Further, it is known that hypoxic tumors are more resistant to radiotherapy and chemotherapy. Through HIF1 alpha up-regulation, hypoxia is associated with multiple negative effects that lead to aggressive tumor phenotypes. These effects include increased angiogenesis, increased metastasis, as well as increased resistance to chemotherapy and radiation therapy. Hypoxia via HIF1a affects many genes involved in cancer progression. Bipolar trans carotenoids such as TSC alter expression of HIF1 targeted genes in hypoxic conditions.

hypoxic tissue = assay: Reoxygenation of hypoxic tissue after low and high dose; assay type: in vivo, human; conditions: humans
Description: With bipolar trans carotenoids such as TSC, there are discrete concentrations that produce efficacy in causing maximum oxygen partial pressure in animals or humans.

newly diagnosed GBM = assay: Phase ½ clinical trial of TSC with RT and TMZ in GBM; assay type: in vivo, human; conditions: for Observed Survival Rate with TSC Treatment (Kaplan-Meier): TSC 0.25 mg/kg IV 3 times per week about 45 minutes prior to RT, plus TMZ
Description: To date, TSC has been used in 148 human subjects […] […] A Phase 1⁄2 clinical trial was recently completed examining TSC in patients with GBM. The Phase 1⁄2 clinical trial in GBM enrolled 59 patients with newly diagnosed disease that received TSC in conjunction with radiation therapy (RT) and temozolomide (TMZ). In the Phase I portion of the trial TSC was initially administered three times per week at half-dose to three patients prior to radiation. Six additional patients received full dose TSC for six weeks in combination with radiation. […] Fifty additional patients were enrolled in the Phase II trial at full dose TSC in combination with TMZ and RT. Four weeks after completion of RT, all patients resumed TMZ for five days every four weeks, but no further TSC was administered. More specifically, fifty-nine patients with newly-diagnosed GBM were enrolled. Patients received standard of care (SOC) radiation therapy (RT) (2 Gy/day, 5 days/week for 6 weeks) and TMZ (75 mg/m2) starting within 5 weeks after a surgical resection of their tumor, if such surgery were possible. Patients receiving only needle biopsies (i.e., no surgery) were also enrolled. In addition to the SOC, TSC was administered 3 times per week, 0.25 mg/kg IV, usually on Monday, Wednesday and Friday, about 45 minutes prior to the RT sessions. Four weeks after completion of RT, patients began chemotherapy with TMZ for 5 days of the first week of a 4 week cycle. This continued for 6 such cycles. No TSC was administered during this chemotherapy.

Ischemic Stroke = assay: Pre-clinical efficacy study: Ischemic Stroke; assay type: in vivo
Description: (§1) It has also been determined that several non-cancer disorders are beneficially treated utilizing an administration regimen of a bipolar trans carotenoid such as TSC, as described below.

Memory Recall = assay: Pre-clinical efficacy study: Memory Recall; assay type: in vivo; conditions: Rat
Description: as §1

DMBA breast tumors = assay: DMBA breast tumor model, TSC before chemotherapy; assay type: in vivo
Critical Limb Ischemia = assay: Pre-clinical efficacy study: Critical Limb Ischemia; assay type: in vivo; conditions: Mouse
Description: as §1

Cancer Chemosensitizer = assay: Pre-clinical efficacy study: Cancer Chemosensitizer; assay type: in vivo; conditions: Rat
Description: as §1

[1] = Change in partial pressure of oxygen, low vs high efficacious dose (FIG. 1); assay type: in vivo; conditions: FIG. 1 hyperoxic rat
Method: FIG. 1 illustrates the change in partial pressure of oxygen of a hyperoxic rat resulting from administration of a low efficacious dose amount compared to a high efficacious dose amount of TSC.
It has been discovered that for a mammal, there are two concentrations of a bipolar trans carotenoid, such as TSC, that result in increased oxygen partial pressure—the “low” dose and the “high” dose—in a tumor. For humans, the low dose range is 0.15-0.35 mg/kg and the high dose range is 0.75 to 2.0 mg/kg. Both doses result in approximately the same maximum increase in oxygen partial pressure.

Wound Healing = assay: Pre-clinical efficacy study: Wound Healing; assay type: in vivo; conditions: Pig
Description: as §1

[2] = test system: Cancer: Radiation Sensitizer; assay: Pre-clinical efficacy study: Cancer: Radiation Sensitizer; assay type: in vivo
Description: as §1

Parkinson's Disease = assay: Pre-clinical efficacy study: Parkinson's Disease; assay type: in vivo; conditions: Rat
Description: as §1

[3] = Stability of TSC versus pH; assay type: physicochemical; conditions: dependence on pH
Method: Mannitol can be used to adjust osmolality and its concentration varies depending on the concentration of other ingredients. The glycine is held constant. […] The use of glycine is compatible with lyophilization. Alternatively, the TSC and cyclodextrin is formulated using a 50 mM bicarbonate or other buffers, in place of the glycine.

Myocardial Infarction = assay: Pre-clinical efficacy study: Myocardial Infarction; assay type: in vivo; conditions: Pig
Description: as §1

Hemorrhagic Shock = assay: Pre-clinical efficacy study: Hemorrhagic Shock; assay type: in vivo
Description: as §1

[4] = Phase 1 and Phase 2 clinical trials of TSC, safety; assay type: in vivo; conditions: 148 human subjects
Description: A Phase ½ clinical trial was recently completed examining TSC in patients with GBM. The Phase ½ clinical trial in GBM enrolled 59 patients with newly diagnosed disease that received TSC in conjunction with radiation therapy (RT) and temozolomide (TMZ). In the Phase I portion of the trial TSC was initially administered three times per week at half-dose to three patients prior to radiation. Six additional patients received full dose TSC for six weeks in combination with radiation. […] Fifty additional patients were enrolled in the Phase II trial at full dose TSC in combination with TMZ and RT. Four weeks after completion of RT, all patients resumed TMZ for five days every four weeks, but no further TSC was administered.

Compound: CC(/C=C/C=C(\C)C(=O)[O-])=C\C=C\C=C(C)\C=C\C=C(/C)C(=O)[O-].[Na+].[Na+] [TSC, trans sodium crocetinate]
- VEGF A gene expression (VEGF A gene): down regulated
- duration of maximum reoxygenation (hypoxic tissue; high dose of 0.75-2.0 mg/kg, e.g. 1.5 mg/kg): lasts for over an hour
- duration of maximum reoxygenation (hypoxic tissue; low dose of 0.15-0.35 mg/kg): lasts for a short time
- time of maximum reoxygenation of hypoxic tissue after injection (hypoxic tissue; low dose of 0.15-0.35 mg/kg, e.g. 0.25 mg/kg): 50 min
- Observed Survival Rate with TSC Treatment (Kaplan-Meier) (newly diagnosed GBM; 1 year): 71.2%
- Observed Survival Rate with TSC Treatment (Kaplan-Meier) (newly diagnosed GBM; 2 years): 36.3%
- reduction in tumor size (newly diagnosed GBM; 37 patients with partial resection or no resection, MRI): vast majority of these 37 patients showed reduction in tumor size
- survival at 2 years vs historical controls (newly diagnosed GBM; all groups of patients administered TSC in addition to SOC treatment): better survival at 2 years
- survival greater than rate in historical trial (newly diagnosed GBM; at both 1 and 2 years): 10%
- survivability at two years (newly diagnosed GBM; biopsy-only patients): 42.9%
- patients showing complete elimination of tumors (newly diagnosed GBM; full-dose patients): ~20%
- effect on glioblastoma multiforme tumors (newly diagnosed GBM; low dose (0.25 mg/kg) 45 minutes before radiation): effective
- dose-limiting toxicities (newly diagnosed GBM; nine patients, Phase I portion, half-dose and full dose TSC with radiation): No dose-limiting toxicities were identified
- increase in chance of survival at two years (newly diagnosed GBM; subgroup of patients considered inoperable, vs control): over 100%
- alive at two years (newly diagnosed GBM; subgroup of patients considered inoperable, less than 20 percent in the control): 40%
- Best Dosage (Ischemic Stroke; Rabbit): Low
- Best Dosage (Ischemic Stroke; Rat): Low
- Best Dosage (Memory Recall): High
- effect on tumor volume with cisplatin (DMBA breast tumors; low dose (for rats) 0.1 mg/kg TSC IV 50 minutes before chemotherapy): not effective
- effect on tumor volume with gemcitabine (DMBA breast tumors; low dose of TSC 50 minutes before chemotherapy): not effective
- Best Dosage (Critical Limb Ischemia): High
- Best Dosage (Cancer Chemosensitizer): High
- oxygen partial pressure, duration of maximum [1]: sustained maximum oxygen partial pressure
- Best Dosage (Wound Healing): High
- Best Dosage ([2]; Mouse): Low
- Best Dosage ([2]; Rat): Low
- Best Dosage (Parkinson's Disease): High
- stability [3]: more stable at higher pHs
- Best Dosage (Myocardial Infarction): Low
- Best Dosage (Hemorrhagic Shock; Pig): Low
- Best Dosage (Hemorrhagic Shock; Rat, low dose (for rats) 0.1 mg/kg, high 0.25 mg/kg): Low
- serious adverse events [4]: no serious adverse events reported
